Test results from patent publication US20050027103A1, “Structural and cytoskeleton-associated protein” (priority 2001, published 2005).

System: expression of SEQ ID NO:33 in early confluent human C3C cells
Experiment: Microarray analysis of SEQ ID NO:33 expression in response to a steroid
Assay type: cell-based
Conditions: 1, 10, and 100 μM beclomethasone for 1, 3, and 6 h
Method: Total RNA is isolated from tissue samples using the guanidinium thiocyanate method and poly(A)^+ RNA is purified using the oligo-(dT) cellulose method. Each poly(A)^+ RNA sample is reverse transcribed using MMLV reverse-transcriptase, 0.05 pg/μl oligo-(dT) primer (21mer), 1×first strand buffer, 0.03 units/μl RNase inhibitor, 500 μM DATP, 500 μM dGTP, 500 μM dTTP, 40 μM dCTP, 40 μM dCTP-Cy3 (BDS) or dCTP-Cy5 (Amersham Biosciences). The reverse transcription reaction is performed in a […] containing 200 ng poly(A)^+ RNA with GENBRIGHT kits (Incyte). Specific control poly(A)^+ RNAs are synthesized by int vitro transcription from non-coding yeast genomic DNA. After incubation at 37° C. for 2 hr, each reaction sample (one with Cy3 and another with Cy5 labeling) is treated with […] of 0.5M sodiumhydroxide and incubated for 20 minutes at 85° C. to the stop the reaction and degrade the RNA. […]
Sequences of the present invention are used to generate array elements. […] PCR amplification uses primers complementary to the vector sequences flanking the cDNA inset Array elements are amplified in thity cycles of PCR from an initial quantity of 1-2 ng to a final quantity greater than 5 μg. […]

C[C@H]1C[C@H]2[C@@H]3CCC4=CC(=O)C=C[C@]4(C)[C@@]3(Cl)[C@@H](O)C[C@]2(C)[C@@]1(O)C(=O)CO [beclomethasone]
expression of SEQ ID NO:33 decreased (microarray analysis): at least 2 fold
